Results taken from the supplement of paper PMC10307832.

Experiments:
Assay in all cases: relative viability (nuclei count vs DMSO), 5 days (fraction); higher = more cells survive
[1] = compound: C[C@]1(c2nc3c(C(N)=O)cccc3[nH]2)CCCN1 [Veliparib] + Cc1nc(Nc2ncc(C(=O)Nc3c(C)cccc3Cl)s2)cc(N2CCN(CCO)CC2)n1 [Dasatinib] (partner 0.075 µM)
Method in brief: (§1)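 Dosing by pin tool came one day after lung cancer cell lines were seeded in 1536-well plates, using either one drug or a fixed anchor-drug dose plus five library-drug doses (not always all listed) in √10 steps. After 5 days, nuclei were counted on 4× images. Relative viability is treated-well nuclei count divided by vehicle-well nuclei count, and values are medians of duplicate plates.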

[2] = compound: COC1=CC=C(C=C1)CN2C=CC3=C2C=C(C=C3)C(=O)NO + O=C(CCCCCCC(=O)Nc1ccccc1)NO [Vorinostat] (partner 1 µM)
Method in brief: as §1

[3] = compound: C[C@]1(c2nc3c(C(N)=O)cccc3[nH]2)CCCN1 [Veliparib] + Nc1ncn([C@H]2C[C@H](O)[C@@H](CO)O2)c(=O)n1 [Decitabine] (partner 2 µM)
Method in brief: as §1

[4] = compound: C[C@]1(c2nc3c(C(N)=O)cccc3[nH]2)CCCN1 [Veliparib] + O=C(CCCCCCC(=O)Nc1ccccc1)NO [Vorinostat] (partner 1 µM)
Method in brief: as §1

Cell Line | relative viability ([1]; first compound 0.02 µM) | relative viability ([1]; first compound 0.06325 µM) | relative viability ([1]; first compound 0.2 µM) | relative viability ([1]; first compound 0.6325 µM) | relative viability ([1]; first compound 2 µM) | relative viability ([2]; first compound 0.08 µM) | relative viability ([2]; first compound 0.253 µM) | relative viability ([2]; first compound 0.8 µM) | relative viability ([2]; first compound 2.53 µM) | relative viability ([2]; first compound 8 µM) | relative viability ([3]; first compound 0.02 µM) | relative viability ([3]; first compound 0.06325 µM) | relative viability ([3]; first compound 0.2 µM) | relative viability ([3]; first compound 0.6325 µM) | relative viability ([3]; first compound 2 µM) | relative viability ([4]; first compound 0.02 µM) | relative viability ([4]; first compound 0.06325 µM) | relative viability ([4]; first compound 0.2 µM) | relative viability ([4]; first compound 0.6325 µM) | relative viability ([4]; first compound 2 µM)
HCC-827 | 0.362 | 0.302 | 0.266 | 0.205 | 0.364 | 0.592 | 0.897 | 0.799 | 0.799 | 0.788 | 0.298 | 0.303 | 0.292 | 0.241 | 0.3 | 0.764 | 0.834 | 0.793 | 0.671 | 0.746
COR-L 105 | 0.355 | 0.273 | 0.352 | 0.331 | 0.324 | 0.489 | 0.802 | 0.828 | 0.815 | 0.63 | 0.634 | 0.66 | 0.744 | 0.59 | 0.599 | 1.02 | 0.823 | 0.869 | 0.698 | 0.813
NCI-H1915 | 0.307 | 0.329 | 0.301 | 0.314 | 0.297 | 0.326 | 0.49 | 0.48 | 0.514 | 0.492 | 0.23 | 0.243 | 0.267 | 0.242 | 0.266 | 0.499 | 0.465 | 0.396 | 0.388 | 0.426
NCI-H650 | 0.378 | 0.372 | 0.414 | 0.369 | 0.423 | 0.337 | 0.414 | 0.437 | 0.477 | 0.34 | 0.309 | 0.283 | 0.265 | 0.278 | 0.317 | 0.29 | 0.333 | 0.397 | 0.457 | 0.432
NCI-H2342 | 0.293 | 0.297 | 0.299 | 0.321 | 0.288 | 0.591 | 0.738 | 0.694 | 0.701 | 0.788 | 0.729 | 0.758 | 0.679 | 0.718 | 0.725 | 0.787 | 0.718 | 0.732 | 0.714 | 0.703
PC-14 | 0.214 | 0.26 | 0.319 | 0.281 | 0.317 | 0.21 | 0.667 | 0.725 | 0.733 | 0.782 | 0.155 | 0.141 | 0.135 | 0.12 | 0.109 | – | 0.622 | 0.701 | 0.639 | 0.64
RERF-LC-KJ | 0.574 | 0.865 | 0.845 | 0.767 | 0.755 | 0.624 | 0.672 | 0.66 | 0.758 | 0.632 | 0.658 | 0.631 | 0.607 | 0.72 | 0.674 | 0.51 | 0.61 | 0.679 | 0.665 | 0.64
LK-2 | – | 0.266 | 0.258 | 0.325 | 0.291 | 0.172 | 0.291 | 0.282 | 0.308 | 0.221 | 0.259 | 0.278 | 0.273 | 0.283 | 0.225 | 0.223 | 0.284 | 0.319 | 0.258 | 0.29
SW 900 | – | – | 0.538 | 0.644 | 0.696 | 0.477 | 0.334 | 0.441 | 0.733 | 0.358 | – | 0.377 | 0.396 | 0.427 | 0.388 | – | 0.452 | 0.472 | 0.606 | 0.463
